82 compounds from ChEMBL document CHEMBL3988442, “University of Dundee, Small-Polar-MMV Screening Library” (2021) can be followed below.

Assay [1] is described as follows: microbe, parasite or virus in culture. Conditions: Mycobacterium tuberculosis, 96 h, read-out: pIC50 (converted).
The nature of assay [2]: microbe, parasite or virus in culture. Particulars: Mycobacterium tuberculosis, 72 h, read-out: pIC50 (converted).

Take `Cc1cnn(CCNCc2ccc3c(c2)OCCO3)c1`: the IC50 was 211 µM in assay [1] and 127 µM in assay [2].

Take `CC1(C)CCC(C(=O)N2CCCO2)c2ccccc21` (centres undefined): the IC50 in assay [1] and in assay [2] was > 50.1 µM throughout.

For the compound `NCC1CN(c2nc3cc(Cl)ccc3o2)CCO1` (centres undefined), the IC50 in assay [1] was 271 µM; in assay [2], 75.2 µM.

As for `O=C(COCC1CC1)Nc1cc(S(=O)(=O)NC2CC2)ccc1F`, the IC50 was > 50.1 µM in assay [1] and 45.8 µM in assay [2].

Consider `O=C(Cc1ccc(-n2cccn2)cc1)N1CCCC(n2cccn2)C1` (centres undefined), for which the IC50 in assay [1] and in assay [2] was > 50.1 µM throughout.

For the compound `COc1cccc(C(=O)Nc2ccnn2C(C)C)c1`, the results for the IC50 in assay [1] and in assay [2] were > 501 µM and 259 µM, respectively.

For `O=C(c1cc(C2CC2)on1)N1CC(O)(C2CC2)C1`, the IC50 is 44.5 µM in assay [1] and 47.3 µM in assay [2].

As to `COc1ccc(NC(=O)N2CCCN(C)CC2)cc1F`, the IC50 in assay [1] and in assay [2] was > 501 µM throughout.

Consider `Cc1nnc(SCCC(=O)N(C)Cc2ccc(Cl)s2)[nH]1`, for which the IC50 in assay [1] was 27.3 µM; in assay [2] it was > 50.1 µM.

`COc1ccc(C(=O)N2CCOC(Cc3cccc(C(F)(F)F)c3)C2)o1` (centres undefined): the values for the IC50 in assay [1] and in assay [2] were 10.7 µM and 35.1 µM, respectively.

For `N#Cc1ccccc1N1CCCC(N)C1` (centres undefined), the IC50 in assay [1] was 142 µM; in assay [2], 79.7 µM.

For `OC1(CNCCN2CCc3ccccc32)CNCCOC1` (centres undefined), the IC50 in assay [1] and in assay [2] was > 50.1 µM throughout.

With `NCCCNS(=O)(=O)c1ccc(Br)c(F)c1`, the IC50 in assay [1] is > 501 µM; in assay [2], 189 µM.

Consider `CC(N)Cc1nc(-c2ccccc2)no1` (centres undefined), for which the results for the IC50 in assay [1] and in assay [2] were 115 µM and 173 µM, respectively.

Regarding `CC(CO)(CO)NCc1cnn(-c2ccc(Br)cc2)c1`, the IC50 in assay [1] is 393 µM; in assay [2], 238 µM.

On to `N#CC1(C(=O)N2CCc3sccc3C2)CCCC1`, for which the IC50 in assay [1] was 167 µM; in assay [2], 475 µM.

`NS(=O)(=O)NCC1CCN(c2cccc(Br)c2)C1` (centres undefined): the IC50 in assay [1] was 230 µM; in assay [2], 247 µM.

With `OC(CN1CCOC2(CCCC2)C1)c1ccccc1` (centres undefined), the IC50 in assay [1] was 172 µM; in assay [2], 379 µM.

Consider `CC(C)Cn1ccnc1CNc1ncccc1F`, for which the IC50 is 382 µM in assay [1] and 307 µM in assay [2].

With `COc1cc(CCC(=O)N2CCC(c3cc4nccnc4[nH]3)CC2)on1`, the IC50 in assay [1] was > 50.1 µM; in assay [2], 30.7 µM.

In the case of `COCCOCCn1nc(C)c(C#N)c1N`, the IC50 in assay [1] and in assay [2] was > 501 µM throughout.

Turning to `CC(CNC(=O)Cn1cccn1)Sc1ccccc1` (centres undefined), the IC50 in assay [1] is 121 µM; in assay [2], 135 µM.

For `CC(C)CC(C)Oc1cc(CN)ccn1` (centres undefined), the IC50 in assay [1] and in assay [2] was > 501 µM throughout.

Consider `CC(C)Nc1nc(N2CCCC2)nc2c1CN(C(C)C)CC2`, for which the IC50 is 15.8 µM in assay [1] and 26.5 µM in assay [2].

For `CNCc1nc(C(F)(F)F)no1`, the IC50 in assay [1] and in assay [2] was > 501 µM in each case.

For the compound `NC1CCCc2occc21` (centres undefined), the results for the IC50 in assay [1] and in assay [2] were 245 µM and 142 µM, respectively.

With `COC1CCN(C(=O)CCc2ccc(F)cc2F)C1` (centres undefined), the IC50 in assay [1] is 21.4 µM; in assay [2] it was 206 µM.

Take `Cc1ccccc1N1CCN(c2cc(N(C)C)ncn2)C(C)C1` (centres undefined): the IC50 in assay [1] and in assay [2] was > 50.1 µM throughout.

For the compound `NC(=O)NC(=O)CCS(=O)(=O)c1cc(F)ccc1F`, the IC50 was 139 µM in assay [1] and 70.1 µM in assay [2].

Consider `O=C(c1ccno1)N1CCOC[C@H](Oc2ccc(C(F)(F)F)cc2)C1`, for which the IC50 in assay [1] and in assay [2] was > 50.1 µM in each case.

Regarding `Cc1c(C(=O)Nc2ccc3c(c2)OCCO3)cnn1C`, the IC50 in assay [1] and in assay [2] was > 501 µM each time.

With `O=C(C1CC1)N1CCN(Cc2cccc(F)c2)CC1`, the IC50 in assay [1] was 210 µM; in assay [2], > 501 µM.

Consider `CCCc1ccc(CN2C[C@H](OCC)[C@@H](O)C2)o1`, for which the IC50 in assay [1] was 241 µM; in assay [2], 298 µM.

Turning to `CCC1CN(C)c2ccccc2CN1CCC(=O)NC` (centres undefined), the IC50 in assay [1] and in assay [2] was > 501 µM in each case.

In the case of `CC(C)(C)c1noc(CCC(=O)N2CCSCC2)n1`, the IC50 in assay [1] and in assay [2] was > 501 µM throughout.

As for `COc1cn(-c2ccccc2)nc1C(=O)NCC(C)C`, the values for the IC50 in assay [1] and in assay [2] were 294 µM and 282 µM, respectively.

In the case of `CC(=O)N1CCC(CN(C)Cc2ccc(Br)o2)C1` (centres undefined), the IC50 in assay [1] and in assay [2] was > 501 µM each time.

As to `NC(=O)c1ccc(-n2ccnc2-c2cccc(O)c2)cc1N1CCCC1`, the IC50 in assay [1] and in assay [2] was > 50.1 µM throughout.

`CC(C)Oc1ccc(S(=O)(=O)N(C)C(C)CN)cc1` (centres undefined): the IC50 in assay [1] is 273 µM; in assay [2], 162 µM.

For `COCCCSc1ccc(NCc2scnc2C)cc1`, the IC50 in assay [1] is 38.7 µM; in assay [2] it was 25.4 µM.

For `OCC(O)CSCc1nc(-c2ccc(Cl)cc2)no1` (centres undefined), the IC50 in assay [1] is 260 µM; in assay [2], 385 µM.

For the compound `CCCC(=O)N(CCCN1CCOCC1)c1nc2c(C)c(C)ccc2s1`, the IC50 in assay [1] and in assay [2] was > 50.1 µM throughout.

For the compound `OC[C@@H]1CCCN1Cc1cccc(F)c1F`, the IC50 in assay [1] and in assay [2] was > 501 µM each time.

With `Cc1nc(CN2CCCC(CCc3ccccc3C(F)(F)F)C2)no1` (centres undefined), the IC50 was 26.2 µM in assay [1] and 28.7 µM in assay [2].

Turning to `CCN(CCO)Cc1cc(-c2cccs2)on1`, the IC50 is > 501 µM in assay [1] and 145 µM in assay [2].

For the compound `CN(C)C(=O)c1nnn(-c2ccc(Br)cc2)n1`, the IC50 was 14.2 µM in assay [1] and 12.6 µM in assay [2].

With `Cc1ccc2[nH]c(=O)cc(C(=O)NCCCn3nccc3C3CC3)c2c1`, the IC50 in assay [1] is > 50.1 µM; in assay [2] it was 26.1 µM.

In the case of `COCCC(=O)N1CCN(CC2CC2)c2ccccc21`, the IC50 in assay [1] is > 50.1 µM; in assay [2], 11.7 µM.

With `Cc1ccc(CN(Cc2ccncc2)C2CCN(C)CC2)s1`, the IC50 in assay [1] and in assay [2] was > 50.1 µM each time.

Take `Fc1ccc2nc(N3CCCNCC3)oc2c1F`: the IC50 is 122 µM in assay [1] and 51.6 µM in assay [2].

Take `CCC(CO)NC(=O)C1(c2ccc(F)cc2F)CCC1` (centres undefined): the IC50 was > 501 µM in assay [1] and 313 µM in assay [2].

Regarding `Cc1ccc(N2CCN(c3ccccc3C)CC2C)nn1` (centres undefined), the IC50 in assay [1] and in assay [2] was > 50.1 µM each time.

Consider `CCNC(=O)CNc1cc(C)c(Cl)cc1OC`, for which the IC50 in assay [1] was > 501 µM; in assay [2], 135 µM.

As to `O=C1C=CC(=O)N1c1ccccc1OC(F)F`, the IC50 in assay [1] was 143 µM; in assay [2], 109 µM.

Consider `COc1ccc(CNc2nc(C3CC3)nc3c(C)nn(C)c23)cc1`, for which the IC50 in assay [1] is 9.46 µM; in assay [2] it was 27.3 µM.

In the case of `Cc1ccc(N2CCN(C(=O)CCC(F)(F)F)C(C)C2)cc1` (centres undefined), the IC50 in assay [1] and in assay [2] was > 50.1 µM in each case.

On to `CCc1cc(CNC(=O)c2ccc(F)c(F)c2)[nH]n1`, for which the IC50 in assay [1] is 102 µM; in assay [2], 175 µM.

With `O=C(NCCc1ccc(F)c(F)c1)N1CCCC(O)C1` (centres undefined), the IC50 in assay [1] and in assay [2] was > 501 µM throughout.

Take `OCCNCCNCc1ccc(-c2ccccc2Cl)o1`: the IC50 in assay [1] was 34.4 µM; in assay [2], 136 µM.

On to `CN(C)S(=O)(=O)NC1CCCOc2c(Cl)cccc21` (centres undefined), for which the IC50 in assay [1] and in assay [2] was > 501 µM in each case.

Turning to `N#Cc1ccc(C(=O)NCC2CC2)cc1`, the IC50 in assay [1] and in assay [2] was 123 µM in each case.

As for `N#CC1(C(=O)NCc2ccccc2F)CC1`, the IC50 in assay [1] and in assay [2] was > 501 µM each time.

`CCCOc1cc(C)ccc1NC(=O)Cn1cnnn1`: the IC50 in assay [1] was > 501 µM; in assay [2] it was 273 µM.

As for `CCCc1nc(C(=O)N2CC(c3ccncc3)C2)cs1`, the figures for the IC50 in assay [1] and in assay [2] were 356 µM and 326 µM, respectively.

As for `N#Cc1cc(Br)cc(S(=O)(=O)NCCCN)c1`, the IC50 in assay [1] and in assay [2] was > 501 µM throughout.

In the case of `NC[C@]12C[C@H]1CCN2Cc1ccccc1`, the IC50 in assay [1] is 184 µM; in assay [2], > 501 µM.

With `Cc1ccc(-n2nnnc2NC2CC2)cc1`, the IC50 in assay [1] was > 501 µM; in assay [2], 263 µM.

For `CCOC(=O)Cn1nnc2ccccc2c1=O`, the IC50 in assay [1] and in assay [2] was > 501 µM throughout.

With `O=C(NC1CCCc2ccccc21)c1ccncc1` (centres undefined), the IC50 in assay [1] is > 501 µM; in assay [2], 146 µM.

As to `Cc1ccc2[nH]c(CN)nc2c1C`, the results for the IC50 in assay [1] and in assay [2] were > 501 µM and 246 µM, respectively.

With `CC(=O)Nc1nc(COc2ccc(C)cn2)cs1`, the figures for the IC50 in assay [1] and in assay [2] were 244 µM and 237 µM, respectively.

For `COc1cc(C)c(S(=O)(=O)N2C[C@@H](O)[C@@H](O)C2)cc1C`, the IC50 was > 501 µM in assay [1] and 229 µM in assay [2].

Turning to `CC(=O)N1CCCC1c1cccc(Cc2ccccc2F)n1` (centres undefined), the IC50 in assay [1] was 39 µM; in assay [2], 29.2 µM.

As to `CN(C)C(=O)c1csc(-c2ccccc2)n1`, the IC50 in assay [1] and in assay [2] was > 501 µM in each case.

For `Cn1nnc(NCc2ccc(-c3ccc(Cl)cc3)o2)n1`, the IC50 in assay [1] is 8.3 µM; in assay [2], 42.2 µM.

Regarding `CCc1ncc(-c2cn(CCSc3ncn[nH]3)nn2)cn1`, the IC50 in assay [1] and in assay [2] was > 50.1 µM each time.

With `CNC(=O)CSc1nnnn1-c1ccc(C(C)C)cc1`, the values for the IC50 in assay [1] and in assay [2] were 134 µM and 120 µM, respectively.

Regarding `O=C(CCn1cccn1)N1CCc2sccc2C1`, the IC50 in assay [1] is > 501 µM; in assay [2] it was 117 µM.

In the case of `O=C(Cn1cc(Br)cn1)Nc1ccc2c(c1)OCCO2`, the IC50 in assay [1] is 247 µM; in assay [2], 220 µM.

For `COC(=O)C(C)OC(=O)c1cccnc1SC` (centres undefined), the IC50 in assay [1] and in assay [2] was > 501 µM each time.

As for `CCOc1ccc(-c2cc(N)[nH]n2)cc1`, the IC50 in assay [1] is > 501 µM; in assay [2], 232 µM.

With `CC(C)Cc1nnc(NCc2ccsc2)o1`, the results for the IC50 in assay [1] and in assay [2] were 35.4 µM and 3.95 µM, respectively.
